# Results published in PubChem BioAssay AID2060340 (Molecular Pharmacology Branch, DTP, NCI, 2025).
# Several values for one entry are separate records, joined by “and”; a condition that tells them apart may be missing. Equal values may be shown once.
# Tested on: 349418-098-R-PDC spheroids, viability, % test/control
# Test: Anticancer human tumor 349418-098-R-PDC patient-derived lung adenocarcinoma cell line growth inhibition [IpAb]
# Conditions: spheroids with HUVEC and MSC; for viability, T/C: stronger effect = lower value
# Outline: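 Combinations with ipatasertib or abemaciclib were tested on tumour spheroids holding HUVEC (25%) and MSC (15%) alongside 60% malignant cells. Top concentration was at or near clinical Cmax (10 microM if undefined), descending in half-log steps.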
# [1] = curve of first compound, second compound 0.01 µM
# [2] = curve of first compound, second compound 0.0316 µM
# [3] = curve of first compound, second compound 0.1 µM
# [4] = curve of first compound, second compound 0.316 µM
# [5] = curve of first compound, second compound 1 µM
# [6] = second compound 0.01 µM, first compound 0.0316 µM
# [7] = second compound 0.01 µM, first compound 0.1 µM
# [8] = second compound 0.01 µM, first compound 0.316 µM
# [9] = second compound 0.01 µM, first compound 1 µM
# [10] = second compound 0.01 µM, first compound 3.16 µM
# [11] = second compound 0.01 µM, first compound 10 µM
# [12] = second compound 0.0316 µM, first compound 0.0316 µM
# [13] = second compound 0.0316 µM, first compound 0.1 µM
# [14] = second compound 0.0316 µM, first compound 0.316 µM
# [15] = second compound 0.0316 µM, first compound 1 µM
# [16] = second compound 0.0316 µM, first compound 3.16 µM
# [17] = second compound 0.0316 µM, first compound 10 µM
# [18] = second compound 0.1 µM, first compound 0.0316 µM
# [19] = second compound 0.1 µM, first compound 0.1 µM
# [20] = second compound 0.1 µM, first compound 0.316 µM
# [21] = second compound 0.1 µM, first compound 1 µM
# [22] = second compound 0.1 µM, first compound 3.16 µM
# [23] = second compound 0.1 µM, first compound 10 µM
# [24] = second compound 0.316 µM, first compound 0.0316 µM
# [25] = second compound 0.316 µM, first compound 0.1 µM
# [26] = second compound 0.316 µM, first compound 0.316 µM
# [27] = second compound 0.316 µM, first compound 1 µM
# [28] = second compound 0.316 µM, first compound 3.16 µM
# [29] = second compound 0.316 µM, first compound 10 µM
# [30] = second compound 1 µM, first compound 0.0316 µM
# [31] = second compound 1 µM, first compound 0.1 µM
# [32] = second compound 1 µM, first compound 0.316 µM
# [33] = second compound 1 µM, first compound 1 µM
# [34] = second compound 1 µM, first compound 3.16 µM
# [35] = second compound 1 µM, first compound 10 µM
# [36] = curve of first compound, second compound 3.16 µM
# [37] = curve of first compound, second compound 10 µM
# [38] = second compound 0.1 µM, first compound 0.00949 µM
# [39] = second compound 0.1 µM, first compound 0.03 µM
# [40] = second compound 0.1 µM, first compound 0.0949 µM
# [41] = second compound 0.1 µM, first compound 0.3 µM
# [42] = second compound 0.1 µM, first compound 0.949 µM
# [43] = second compound 0.1 µM, first compound 3 µM
# [44] = second compound 0.316 µM, first compound 0.00949 µM
# [45] = second compound 0.316 µM, first compound 0.03 µM
# [46] = second compound 0.316 µM, first compound 0.0949 µM
# [47] = second compound 0.316 µM, first compound 0.3 µM
# [48] = second compound 0.316 µM, first compound 0.949 µM
# [49] = second compound 0.316 µM, first compound 3 µM
# [50] = second compound 1 µM, first compound 0.00949 µM
# [51] = second compound 1 µM, first compound 0.03 µM
# [52] = second compound 1 µM, first compound 0.0949 µM
# [53] = second compound 1 µM, first compound 0.3 µM
# [54] = second compound 1 µM, first compound 0.949 µM
# [55] = second compound 1 µM, first compound 3 µM
# [56] = second compound 3.16 µM, first compound 0.00949 µM
# [57] = second compound 3.16 µM, first compound 0.03 µM
# [58] = second compound 3.16 µM, first compound 0.0949 µM
# [59] = second compound 3.16 µM, first compound 0.3 µM
# [60] = second compound 3.16 µM, first compound 0.949 µM
# [61] = second compound 3.16 µM, first compound 3 µM
# [62] = second compound 10 µM, first compound 0.00949 µM
# [63] = second compound 10 µM, first compound 0.03 µM
# [64] = second compound 10 µM, first compound 0.0949 µM
# [65] = second compound 10 µM, first compound 0.3 µM
# [66] = second compound 10 µM, first compound 0.949 µM
# [67] = second compound 10 µM, first compound 3 µM
# 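Also: spheroids exposed to compounds for 7 days.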
smiles,measurement,setting,value
C=CC(=O)N1CCN(c2nc(=O)n(-c3c(C)ccnc3C(C)C)c3nc(-c4c(O)cccc4F)c(F)cc23)C(C)C1 (stereo not drawn) + CCN1CCN(Cc2ccc(Nc3ncc(F)c(-c4cc(F)c5nc(C)n(C(C)C)c5c4)n3)nc2)CC1,IC50,[1],4630 nM
same,IC50,[2],124 nM
same,IC50,[3],< 31.6 nM
same,IC50,[4],< 31.6 nM
same,IC50,[5],< 31.6 nM
same,"viability, T/C",[6],90.2%
same,"viability, T/C",[7],82.9%
same,"viability, T/C",[8],82.8%
same,"viability, T/C",[9],87.1%
same,"viability, T/C",[10],57.2%
same,"viability, T/C",[11],35.5%
same,"viability, T/C",[12],58.9%
same,"viability, T/C",[13],47.8%
same,"viability, T/C",[14],43.2%
same,"viability, T/C",[15],41.2%
same,"viability, T/C",[16],35.1%
same,"viability, T/C",[17],20.5%
same,"viability, T/C",[18],33.9%
same,"viability, T/C",[19],28.7%
same,"viability, T/C",[20],31.4%
same,"viability, T/C",[21],29.6%
same,"viability, T/C",[22],23.3%
same,"viability, T/C",[23],13.2%
same,"viability, T/C",[24],19.7%
same,"viability, T/C",[25],22%
same,"viability, T/C",[26],22.1%
same,"viability, T/C",[27],21.2%
same,"viability, T/C",[28],18.1%
same,"viability, T/C",[29],14.1%
same,"viability, T/C",[30],19.3%
same,"viability, T/C",[31],21.5%
same,"viability, T/C",[32],20.9%
same,"viability, T/C",[33],16%
same,"viability, T/C",[34],19.2%
same,"viability, T/C",[35],10.9%
Cc1nc(NC(=O)N2CCCC2C(N)=O)sc1-c1ccnc(C(C)(C)C(F)(F)F)c1 (stereo not drawn),"viability, T/C",compound 0.0316 µM,87.3% and 95.4%
same,"viability, T/C",compound 0.1 µM,81.1% and 75.3%
same,"viability, T/C",compound 0.316 µM,46.4% and 43.7%
same,"viability, T/C",compound 1 µM,18.9% and 22.8%
same,"viability, T/C",compound 3.16 µM,14% and 15.1%
same,"viability, T/C",compound 10 µM,11.2% and 14.1%
same,IC50,curve of compound,284 nM and 251 nM
Cn1nccc1Nc1nccc(-c2ccn(C(CO)c3ccc(Cl)c(F)c3)c(=O)c2)n1 (stereo not drawn),"viability, T/C",compound 0.0316 µM,50.1% and 54.6%
same,"viability, T/C",compound 0.1 µM,42.6% and 45.7%
same,"viability, T/C",compound 0.316 µM,57.2% and 49.9%
same,"viability, T/C",compound 1 µM,44.4% and 49.7%
same,"viability, T/C",compound 3.16 µM,29% and 30.1%
same,"viability, T/C",compound 10 µM,19.7% and 21.3%
CC(C)(C)c1cnc(CSc2cnc(NC(=O)C3CCNCC3)s2)o1 + CC(C)NCC(C(=O)N1CCN(c2ncnc3c2C(C)CC3O)CC1)c1ccc(Cl)cc1,IC50,[3],40.6 nM
same,IC50,[4],< 9.49 nM
same,IC50,[5],< 9.49 nM
same,IC50,[36],< 9.49 nM
same,IC50,[37],< 9.49 nM
same,"viability, T/C",[38],88.9%
same,"viability, T/C",[39],65.3%
same,"viability, T/C",[40],6.84%
same,"viability, T/C",[41],2.85%
same,"viability, T/C",[42],2.98%
same,"viability, T/C",[43],2.15%
same,"viability, T/C",[44],45.6%
same,"viability, T/C",[45],31.9%
same,"viability, T/C",[46],5.43%
same,"viability, T/C",[47],2.19%
same,"viability, T/C",[48],2.77%
same,"viability, T/C",[49],1.75%
same,"viability, T/C",[50],22.1%
same,"viability, T/C",[51],15.5%
same,"viability, T/C",[52],3.25%
same,"viability, T/C",[53],2.27%
same,"viability, T/C",[54],2.58%
same,"viability, T/C",[55],2.1%
same,"viability, T/C",[56],9.45%
same,"viability, T/C",[57],8.27%
same,"viability, T/C",[58],3.2%
same,"viability, T/C",[59],2.2%
same,"viability, T/C",[60],2.72%
same,"viability, T/C",[61],2.4%
same,"viability, T/C",[62],5.95%
same,"viability, T/C",[63],5.37%
same,"viability, T/C",[64],2.11%
same,"viability, T/C",[65],1.93%
same,"viability, T/C",[66],2.03%
same,"viability, T/C",[67],1.53%
Cc1nc(NC(=O)N2CCCC2C(N)=O)sc1-c1ccnc(C(C)(C)C(F)(F)F)c1 (stereo not drawn) + CCN1CCN(Cc2ccc(Nc3ncc(F)c(-c4cc(F)c5nc(C)n(C(C)C)c5c4)n3)nc2)CC1,IC50,[1],47.5 nM
same,IC50,[2],< 31.6 nM
same,IC50,[3],< 31.6 nM
same,IC50,[4],< 31.6 nM
same,IC50,[5],< 31.6 nM
same,"viability, T/C",[6],59.8%
same,"viability, T/C",[7],32.7%
same,"viability, T/C",[8],17.9%
same,"viability, T/C",[9],14.1%
same,"viability, T/C",[10],10.2%
same,"viability, T/C",[11],8.7%
same,"viability, T/C",[12],40.5%
same,"viability, T/C",[13],27.1%
same,"viability, T/C",[14],12.1%
same,"viability, T/C",[15],7.43%
same,"viability, T/C",[16],7.43%
same,"viability, T/C",[17],8.13%
same,"viability, T/C",[18],20.3%
same,"viability, T/C",[19],13.9%
same,"viability, T/C",[20],9.49%
same,"viability, T/C",[21],7.63%
same,"viability, T/C",[22],7.46%
same,"viability, T/C",[23],7.65%
same,"viability, T/C",[24],15.9%
same,"viability, T/C",[25],12.6%
same,"viability, T/C",[26],9.79%
same,"viability, T/C",[27],8.43%
same,"viability, T/C",[28],9%
same,"viability, T/C",[29],7.65%
same,"viability, T/C",[30],12.8%
same,"viability, T/C",[31],11.4%
same,"viability, T/C",[32],9.14%
same,"viability, T/C",[33],7.42%
same,"viability, T/C",[34],7.89%
same,"viability, T/C",[35],6.94%
Cn1cnc2c(F)c(Nc3ccc(Br)cc3Cl)c(C(=O)NOCCO)cc21 + CC(C)NCC(C(=O)N1CCN(c2ncnc3c2C(C)CC3O)CC1)c1ccc(Cl)cc1,IC50,[3],< 9.49 nM
same,IC50,[4],< 9.49 nM
same,IC50,[5],< 9.49 nM
same,IC50,[36],< 9.49 nM
same,IC50,[37],< 9.49 nM
same,"viability, T/C",[38],46.7%
same,"viability, T/C",[39],38.4%
same,"viability, T/C",[40],41.8%
same,"viability, T/C",[41],33.6%
same,"viability, T/C",[42],18.8%
same,"viability, T/C",[43],8.1%
same,"viability, T/C",[44],25.7%
same,"viability, T/C",[45],24.6%
same,"viability, T/C",[46],21.4%
same,"viability, T/C",[47],18.8%
same,"viability, T/C",[48],10.2%
same,"viability, T/C",[49],7.06%
same,"viability, T/C",[50],12.5%
same,"viability, T/C",[51],10.5%
same,"viability, T/C",[52],10.3%
same,"viability, T/C",[53],7.91%
same,"viability, T/C",[54],6.83%
same,"viability, T/C",[55],5.21%
same,"viability, T/C",[56],7.25%
same,"viability, T/C",[57],6.51%
same,"viability, T/C",[58],5.52%
same,"viability, T/C",[59],5.93%
same,"viability, T/C",[60],4.94%
same,"viability, T/C",[61],3.63%
same,"viability, T/C",[62],5.59%
same,"viability, T/C",[63],5.09%
same,"viability, T/C",[64],4.7%
same,"viability, T/C",[65],3.85%
same,"viability, T/C",[66],3.8%
same,"viability, T/C",[67],3.14%
